Assays:
FimH = target: T1, FimH (Escherichia coli, UniProt Q1R2J4); format: cell-based; conditions: concentration reducing bacterial agglutination of guinea pig red blood cells by greater than 90%; UTI89 bacteria
T1 construct: performed with UTI89 bacteria and guinea pig red blood cells; endogenous in cells; host or cells: UTI89 bacteria (whole cells, type 1 piliated)
Protocol: The hemagglutination inhibition (HAI) assay was performed with UTI89 bacteria and guinea pig red blood cells, as previously described (S. J. Hultgren, W. R. Schwan, A. J. Schaeffer, J. L. Duncan Infect. Immun. 1986, 54, 613-620).

UTI89 bacteria = test: Biofilm inhibition assay with UTI89 bacteria; format: cell-based; conditions: read-out: Biofilm prevention IC50
Protocol: The biofilm inhibition assay was performed with UTI89 bacteria as previously described (L. Cegelski, J. S. Pinkner, N. D. Hammer, C. K. Cusumano, C. S. Hung, E. Chorell, V. Aberg, J. N. Walker, P. C. Seed, F. Almqvist, M. R. Chapman, S. J. Hultgren Nature Chem. Biol. 2009, 5, 913-919). Compounds not listed were not tested.

FimHL = target: T2, FimHL (Escherichia coli, UniProt P08191); test: Differential scanning fluorimetry (DSF) with purified FimHL; format: binding; conditions: FimHL 10 μM with mannoside 100 μM, SYPRO Orange, HEPES pH 7.5; Tm from Boltzmann fit
T2 construct: Purified FimHL (10 μM) in the absence or presence of mannoside (100 μM)
Protocol: Purified FimHL (10 μM) in the absence or presence of mannoside (100 μM) was combined with 5×SYPRO Orange in a 50 μl reaction mixture buffered in 20 mM HEPES pH 7.5, 150 mM NaCl (HBS) and 0.4% DMSO. Binding equilibria were established by allowing the reaction mixtures to incubate at 23° C. for 30 min. These reaction mixtures were then placed in 96-well clear-bottom PCR plates and subjected to a melt curve from 20-90° C. in 0.5° C. increments of 15 seconds, each followed by a fluorescence read of the “HEX” channel in a Bio-Rad CFX96 thermocycler (Bio-Rad, Hercules, Calif.). Melt curves were fitted to the Boltzmann equation (y=A2+(A1−A2)/(1+exp((x−xo)/dx)) where xo is the Tm) to determine the melting temperature (Tm) using GraphPad Prism 6 (San Diego Calif.). Melting temperatures are represented as the mean and standard error of two biological replicates, each of which consisted of three technical replicates. Compounds not listed were not tested.

Structure (SMILES) | HAI titer EC>90 (FimH) [µM] | IC50 (UTI89 bacteria) [nM] | DSF Melting Temp (FimHL) [°C]
Cc1cc(-c2ccc3ccnc(N)c3c2)ccc1[C@@H](O)[C@H]1O[C@H](CO)[C@@H](O)[C@H](O)[C@@H]1O [Example 3, (2R,3S,4S,5S,6R)-2-((R)-(4-(1-aminoisoquinolin-7-yl)-2-methylphenyl)(hydroxy)methyl)-6-(hydroxymethyl)tetrahydro-2H-pyran-3,4,5-triol] | 0.006 | 40 | 77.7
Cc1cc(-c2ccc3c(c2)C(=O)NCC3)ccc1[C@@H](O)[C@H]1O[C@H](CO)[C@@H](O)[C@H](O)[C@@H]1O [Example 4, 7-(4-((R)-hydroxy((2R,3S,4S,5S,6R)-3,4,5-trihydroxy-6-(hydroxymethyl)tetrahydro-2H-pyran-2-yl)methyl)-3-methylphenyl)-3,4-dihydroisoquinolin-1 (2H)-one] | 0.008 | 40 | 76.06

Reference: patent publication US20200002303A1, “C-GLYCOSIDE COMPOUNDS USEFUL FOR TREATING DISEASE” (Fimbrion Therapeutics, Inc., priority 2016, published 2020)
